Patent US4241066A, “14-Amino derivatives of morphine, methods of making them and analgesic compositions containing them” (priority 1977, dated 1980)

Experiments:
opiate receptor [1] = assay: in vivo agonist test in the rat, tail pressure as nociceptive stimulus (Green and Young); details: administered subcutaneously
Procedure: The compounds have been screened for agonist activity in the rat using tail pressure as the nociceptive stimulus as described by Green, H. F., and Young, P. A., Br. J. Pharmac. Chemother., 6, 572 (1951) and for morphine antagonist activity in rat using a tail flick test modified from the method described for mice by Ben Bassat et al (Arch Int. Pharmacoldyn. 122, 434 [1959]). The nociceptive stimulus in this test is a hot water bath (55° C.).

opiate receptor [2] = molecular target: T1, opiate receptor (Rattus norvegicus, UniProt P33535); assay type: in vivo; details: tail flick, hot water bath 55° C., administered subcutaneously
T1 construct: from tissue; host or cells: living rat (whole animal, subcutaneous dosing)
Procedure: Chemother., 6, 572 (1951) and for morphine antagonist activity in rat using a tail flick test modified from the method described for mice by Ben Bassat et al (Arch Int. Pharmacoldyn. 122, 434 [1959]). The nociceptive stimulus in this test is a hot water bath (55° C.).

T1 sequence (P33535 whole entry): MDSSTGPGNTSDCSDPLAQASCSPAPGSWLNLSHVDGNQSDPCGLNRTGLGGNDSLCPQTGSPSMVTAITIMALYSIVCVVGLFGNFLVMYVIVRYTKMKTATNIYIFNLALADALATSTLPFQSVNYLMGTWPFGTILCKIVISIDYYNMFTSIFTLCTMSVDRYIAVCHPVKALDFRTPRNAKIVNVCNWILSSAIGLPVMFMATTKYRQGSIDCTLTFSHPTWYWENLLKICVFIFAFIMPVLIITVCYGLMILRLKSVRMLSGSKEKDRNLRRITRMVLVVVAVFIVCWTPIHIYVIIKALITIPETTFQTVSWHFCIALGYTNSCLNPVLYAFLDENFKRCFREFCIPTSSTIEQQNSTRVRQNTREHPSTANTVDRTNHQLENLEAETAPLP

| SMILES | ED50 (agonist, antinociceptive) (opiate receptor [1]) [mg/kg] | AD50 (morphine antagonist) (opiate receptor [2]) [mg/kg] |
| --- | --- | --- |
| CCCCCCN[C@@]12C=CC(=O)[C@@H]3Oc4c(OC)ccc5c4[C@@]31CCN(CC1CC1)[C@@H]2C5 [Example 38] | 1.92 |  |
| O=C1C=C[C@@]2(NCC3CC3)[C@H]3Cc4ccc(O)c5c4[C@@]2(CCN3CC2CC2)[C@H]1O5 [Example 48] |  | 0.0027 |
| O=CN[C@@]12C=CC(=O)[C@@H]3Oc4c(O)ccc5c4[C@@]31CCN(CC1CC1)[C@@H]2C5 [Example 49] |  | 0.132 |
| CCCCCC(=O)N[C@@]12C=CC(=O)[C@@H]3Oc4c(O)ccc5c4[C@@]31CCN(CC1CC1)[C@@H]2C5 [Example 54] | 0.0036 |  |
| CN1CC[C@]23c4c5ccc(O)c4O[C@H]2[C@@H](O)C=C[C@H]3[C@H]1C5 [morphine] | 0.66 |  |
